Experimental data as given in the NIST ThermoML archive (doi:10.1016/j.jct.2019.01.021).
± gives the expanded uncertainty stated by the source.

Experiment: molar heat capacity at constant pressure
Settings: 101.33 kPa, Crystal 2, Small (less than 1 g) adiabatic calorimetry

N.NS(=O)(=O)O [ammonium sulfamate]
Settings	molar heat capacity at constant pressure [J/K/mol]
5 K	0.003159
8.91 K	0.2228 ± 0.018
9.15 K	0.2561 ± 0.019
9.62 K	0.3293 ± 0.02
9.86 K	0.3608 ± 0.02
10 K	0.3908 ± 0.025
10.36 K	0.4664 ± 0.022
10.69 K	0.5138 ± 0.022
11.01 K	0.5995 ± 0.023
11.34 K	0.6668 ± 0.024
11.67 K	0.7466 ± 0.026
12.01 K	0.8356 ± 0.027
12.34 K	0.9262 ± 0.028
12.68 K	1.013 ± 0.03
13.01 K	1.113 ± 0.032
13.35 K	1.229 ± 0.033
13.69 K	1.347 ± 0.035
14.03 K	1.465 ± 0.037
14.37 K	1.586 ± 0.039
14.72 K	1.72 ± 0.042
15 K	1.837 ± 0.058
15.07 K	1.857 ± 0.043
15.42 K	2 ± 0.046
15.76 K	2.155 ± 0.048
16.11 K	2.332 ± 0.052
16.47 K	2.484 ± 0.054
16.82 K	2.64 ± 0.057
17.17 K	2.83 ± 0.06
17.52 K	3.021 ± 0.062
17.88 K	3.204 ± 0.066
18.24 K	3.395 ± 0.069
18.59 K	3.592 ± 0.072
18.95 K	3.806 ± 0.076
19.31 K	4.033 ± 0.079
19.67 K	4.25 ± 0.082
20 K	4.407 ± 0.083
20.03 K	4.465 ± 0.086
20.61 K	4.831 ± 0.091
21.36 K	5.306 ± 0.099
22.1 K	5.824 ± 0.11
22.85 K	6.364 ± 0.12
23.61 K	6.908 ± 0.12
24.36 K	7.492 ± 0.13
25 K	7.982 ± 0.17
25.12 K	8.117 ± 0.14
25.88 K	8.748 ± 0.15
26.65 K	9.316 ± 0.16
27.42 K	9.947 ± 0.17
28.19 K	10.61 ± 0.18
28.96 K	11.3 ± 0.19
29.73 K	11.97 ± 0.2
30 K	12.22 ± 0.33
30.51 K	12.68 ± 0.22
31.29 K	13.41 ± 0.23
32.06 K	14.11 ± 0.24
32.85 K	14.85 ± 0.26
33.63 K	15.59 ± 0.27
34.41 K	16.31 ± 0.28
35 K	16.88 ± 0.42
35.2 K	17.03 ± 0.29
35.98 K	17.81 ± 0.3
36.77 K	18.53 ± 0.31
37.56 K	19.25 ± 0.32
38.35 K	19.96 ± 0.33
39.14 K	20.7 ± 0.34
39.93 K	21.44 ± 0.35
40 K	21.53 ± 0.5
40.72 K	22.21 ± 0.37
41.51 K	22.95 ± 0.38
42.31 K	23.72 ± 0.39
43.1 K	24.46 ± 0.4
43.9 K	25.22 ± 0.41
44.69 K	26 ± 0.42
45 K	26.19 ± 0.67
45.49 K	26.74 ± 0.43
46.29 K	27.42 ± 0.44
47.09 K	28.16 ± 0.46
47.88 K	28.92 ± 0.47
48.68 K	29.58 ± 0.48
49.48 K	30.31 ± 0.49
50 K	30.85 ± 0.75
50.28 K	31.01 ± 0.5
51.08 K	31.75 ± 0.51
51.88 K	32.46 ± 0.52
52.68 K	33.24 ± 0.53
53.48 K	34.09 ± 0.55
54.28 K	34.9 ± 0.56
55 K	35.75 ± 0.83
55.08 K	35.75 ± 0.57
55.89 K	36.24 ± 0.58
56.69 K	36.94 ± 0.59
57.49 K	37.64 ± 0.6
58.29 K	38.37 ± 0.61
59.1 K	39.05 ± 0.62
59.91 K	39.76 ± 0.63
60 K	39.91 ± 0.83
60.71 K	40.47 ± 0.64
61.52 K	41.17 ± 0.65
62.32 K	42.03 ± 0.67
63.12 K	42.86 ± 0.68
63.92 K	43.55 ± 0.69
64.73 K	44.16 ± 0.7
65 K	44.07 ± 0.83
65.54 K	44.89 ± 0.71
66.34 K	45.53 ± 0.72
67.15 K	46.21 ± 0.73
67.95 K	46.89 ± 0.74
68.76 K	47.59 ± 0.75
69.57 K	48.3 ± 0.76
70 K	49.06 ± 0.83
70.38 K	49.01 ± 0.77
71.3 K	49.73 ± 0.79
72.35 K	50.64 ± 0.8
73.39 K	51.54 ± 0.81
74.44 K	52.48 ± 0.83
75 K	53.21 ± 1.7
75.48 K	53.43 ± 0.84
76.53 K	54.35 ± 0.86
77.58 K	55.24 ± 0.87
78.62 K	56.18 ± 0.88
79.67 K	57.12 ± 0.9
79.91 K	57.2 ± 0.9
80 K	57.37 ± 1.7
80.72 K	58.02 ± 0.33
80.96 K	58.19 ± 0.33
81.77 K	58.95 ± 0.33
82.01 K	59.07 ± 0.33
82.82 K	59.87 ± 0.34
83.05 K	59.96 ± 0.34
83.87 K	60.82 ± 0.34
84.1 K	60.91 ± 0.34
84.92 K	61.73 ± 0.34
85.15 K	61.78 ± 0.34
86.2 K	62.6 ± 0.35
87.24 K	63.53 ± 0.35
88.29 K	64.43 ± 0.36
89.34 K	65.22 ± 0.36
90 K	65.68 ± 0.33
90.39 K	66.05 ± 0.38
91.44 K	66.98 ± 0.39
92.49 K	67.83 ± 0.39
93.54 K	68.65 ± 0.39
94.59 K	69.45 ± 0.4
95.65 K	70.24 ± 0.4
96.7 K	71.12 ± 0.4
97.75 K	71.89 ± 0.41
98.8 K	72.7 ± 0.41
99.86 K	73.47 ± 0.41
100 K	73.33 ± 0.42
100.91 K	74.3 ± 0.42
101.96 K	75.09 ± 0.42
103.01 K	75.85 ± 0.42
104.06 K	76.59 ± 0.43
105.11 K	77.34 ± 0.43
106.16 K	78.13 ± 0.43
107.21 K	78.85 ± 0.43
108.26 K	79.53 ± 0.44
109.31 K	80.3 ± 0.44
110 K	80.4 ± 0.42
110.37 K	80.98 ± 0.44
111.42 K	81.71 ± 0.45
112.47 K	82.4 ± 0.45
113.53 K	83.05 ± 0.45
114.58 K	83.71 ± 0.46
115.63 K	84.43 ± 0.46
116.68 K	85.1 ± 0.46
117.74 K	85.75 ± 0.47
118.79 K	86.44 ± 0.47
119.84 K	87.02 ± 0.47
120 K	86.89 ± 0.42
120.9 K	87.68 ± 0.47
121.95 K	88.37 ± 0.47
123 K	88.95 ± 0.47
124.05 K	89.55 ± 0.47
125.11 K	90.12 ± 0.48
126.16 K	90.78 ± 0.48
127.21 K	91.36 ± 0.48
128.27 K	92.02 ± 0.49
129.32 K	92.56 ± 0.49
130 K	92.71 ± 0.42
130.38 K	93.15 ± 0.49
131.43 K	93.76 ± 0.49
132.49 K	94.31 ± 0.5
133.54 K	94.78 ± 0.5
134.59 K	95.43 ± 0.5
135.65 K	95.99 ± 0.51
136.7 K	96.5 ± 0.51
137.76 K	97.01 ± 0.51
138.81 K	97.53 ± 0.51
139.87 K	98.13 ± 0.52
140 K	98.03 ± 0.5
140.92 K	98.63 ± 0.52
141.97 K	99.21 ± 0.52
143.03 K	99.69 ± 0.52
144.09 K	100.16 ± 0.52
145.14 K	100.67 ± 0.52
146.2 K	101.12 ± 0.52
147.25 K	101.64 ± 0.52
148.31 K	102.18 ± 0.53
149.36 K	102.59 ± 0.53
150 K	102.85 ± 0.5
150.42 K	103.11 ± 0.53
151.47 K	103.62 ± 0.53
152.53 K	104.13 ± 0.54
153.58 K	104.47 ± 0.54
154.64 K	105.04 ± 0.54
155.69 K	105.57 ± 0.54
156.75 K	105.98 ± 0.54
157.8 K	106.39 ± 0.55
158.86 K	106.87 ± 0.55
159.91 K	107.31 ± 0.55
160 K	107.34 ± 0.5
160.97 K	107.74 ± 0.55
162.02 K	108.15 ± 0.55
163.08 K	108.69 ± 0.56
164.13 K	109.09 ± 0.56
165.19 K	109.46 ± 0.56
166.24 K	109.98 ± 0.56
167.3 K	110.42 ± 0.57
168.35 K	110.83 ± 0.57
169.41 K	111.19 ± 0.57
170 K	111.5 ± 0.5
170.46 K	111.64 ± 0.57
171.51 K	112.13 ± 0.57
172.57 K	112.44 ± 0.57
173.62 K	112.78 ± 0.57
174.67 K	113.21 ± 0.57
175.73 K	113.67 ± 0.57
176.78 K	114.15 ± 0.57
177.84 K	114.52 ± 0.58
178.89 K	114.89 ± 0.58
179.94 K	115.32 ± 0.58
180 K	115.4 ± 0.5
181 K	115.71 ± 0.58
182.05 K	116.14 ± 0.58
183.1 K	116.41 ± 0.58
184.16 K	116.84 ± 0.59
185.21 K	117.3 ± 0.59
186.26 K	117.56 ± 0.59
